The source of these data is patent US20240124454A1, “TRICYCLIC COMPOUND AND USE THEREOF” (NANJING ZAIMING PHARMACEUTICAL CO., LTD., priority 2020, published 2024).

One data set concerns HCT116 MTAP^−/− cells. Kind of data set: Determination of intracellular SAM level by LC-MS/MS. Format: cell-based. Particulars: Homo sapiens, HCT-116, 6 h, read-out: SAM production inhibitory activity IC50. How it is done: Test Example 2. Determination of Intracellular SAM Level
The brief introduction of the test principle: After the test MAT2A inhibitor was incubated with cancer cells for a period of time, the cells were lysed with a stop reagent to quench the activity of the MAT2A enzyme. The catalytic product SAM of MAT2A in the cell lysate was quantitatively determined by LC-MS/MS, and thus the activity of MAT2A in the cell was reflected.
Reference: The experiment referred to the method disclosed in patent WO2018045071.
Material and cell: HCT116 MTAP^−/− cells were purchased from KYinno; fetal bovine serum, McCoy's 5a culture medium, and penicillin-streptomycin were purchased from Gibco Company (U.S.), and 96-well plates were purchased from Corning Company (U.S.).
Cell culture: HCT116 MTAP^−/− cells were cultured with a McCoy's 5a medium containing 10% fetal bovine serum+1% penicillin-streptomycin at 37° C. with 5% CO2. Cells at logarithmic growth phase were available for the experiment.
LC-MS/MS detection: The effect of the compound on the SAM production level in HCT116 MTAP^−/− cell strains was detected by LC-MS/MS. The cells were adjusted to a concentration of 50000 cells per well, seeded on a 96-well plate, and incubated overnight at 37° C. with 5% CO2. In the experimental group, the test compound was dissolved in DMSO, diluted sequentially with DMSO and a culture medium, and transferred to a cell plate at a final concentration of 10 μM, 3-fold dilution. The cells were continuously cultured at 37° C. with 5% CO2 for 6 h. The supernatant was pipetted off. After the cells were washed once with PBS, glacial acetic acid was added to lyse the cells. After the lysate was processed, the SAM concentration was determined by LC-MS/MS analysis.
A negative control group and a positive control group were respectively used as Bottom and Top. The negative control group was added with 10 μM positive compound (compound 072 of Example 51 of patent WO2021139775A1) in the same volume, and other operations were consistent with those of the experimental group. The positive control group was not added with the test compound, only added with DMSO in the same volume, and other operations were consistent with those of the experimental group.
The % Compound inhibition was calculated and fitted to give the IC50 of the compound.
% Compound inhibition=1−100%×(Signal−Bottom)/(Top−Bottom)
Signal referred to the signal value of the experimental group, Bottom referred to the average signal value of the negative control group, and Top referred to the average signal value of the positive control group.

Another data set concerns the target CYP2C9 (Homo sapiens (Human), UniProt P11712). Kind of data set: CYP2C9 inhibition in human liver microsomes (diclofenac substrate). Particulars: human liver microsome. It is filed as in vitro ADME. How it is done: (§1) Test Example 7. Inhibitory Effect of Compound of the Present Application on Enzymatic Activity of CYP2C9, CYP2D6, and CYP3A4
(§2) The inhibition of CYP2C9, CYP2D6, and CYP3A4 activity by the compound of the present application was determined using the following method.
(§3) I. Experimental materials and instruments • 1. Human liver microsome (Corning 452117) • 2. NADPH (Solarbio 705Y021) • 3. Positive substrates diclofenac (Sigma SLBV3438), dextromethorphan (TRC 3-EDO-175-1), and midazolam (Cerilliant FE01161704) • 4. Positive inhibitors sulfaphenazole (D. Ehrenstorfer GmbH 109012), quinidine (TCI WEODL-RE), and ketoconazole (Sigma 100M1091V) • 5. AB Sciex Triple Quad 5500 liquid chromatography-mass spectrometry system
(§4) 1. Preparation of 100 mM phosphate-buffered saline (PBS): 7.098 g Na2HPO4 was weighed. 500 mL pure water was added. The mixture was dissolved by sonication to give solution A. 3.400 g KH2PO4 was weighed. 250 mL pure water was added. The mixture was dissolved by sonication to give solution B. The solution A was placed in a stirrer, and the solution B was slowly added until the pH reached 7.4, so that the 100 mM PBS buffer was prepared.
(§5) 2. A 10 mM NADPH solution was prepared with a 100 mM PBS buffer. A 10 mM stock solution of the compound of the present application was diluted with DMSO to give a compound working solution at a concentration of 200×(6000, 2000, 600, 200, 60, 20, and 0 μM). The positive inhibitor stock solution was diluted with DMSO to give a positive inhibitor working solution at a concentration of 200×(sulfaphenazole, 1000, 300, 100, 30, 10, 3, and 0 μM; quinidine/ketoconazole, 100, 30, 10, 3, 1, 0.3, and 0 μM). Substrate working solutions (120 μM diclofenac, 400 μM dextromethorphan, and 200 μM midazolam) at a concentration of 200× were prepared with water, acetonitrile, or acetonitrile/methanol.
(§6) 3. 2 μL of 20 mg/mL liver microsome solution, 1 μL of substrate working solution, 1 μL of compound working solution, and 176 μL of PBS buffer were taken, mixed well, and placed in a 37° C. water bath for pre-incubation for 15 min. 1 μL of sulfaphenazole, quinidine, or ketoconazole working solution was added to the positive control group instead of the compound working solution. At the same time, 10 mM NADPH solution was placed together in the 37° C. water bath for pre-incubation for 15 min. After 15 min, 20 μL of NADPH was added to each well to initiate the reaction. The mixture was incubated at 37° C. for 5 min (CYP2C9), 20 min (CYP2D6), or 5 min (CYP3A4). All incubated samples were in duplicate. After incubation for the corresponding period of time, 400 μL of icy methanol containing internal standard was added to all samples to stop the reaction. The mixture was vortexed, mixed well, and centrifuged for 40 min at 4° C. at 3220 g. 100 μL of the supernatant was transferred to a feeding plate after the centrifugation was completed, and 100 μL ultrapure water was added. The mixture was well mixed for LC-MS/MS analysis.
(§7) The reduction of metabolite production in the treatment groups versus the control group was compared by the peak area ratios of the sample to the internal standard, and the IC50 value was calculated using Excel XLfit 5.3.1.3.
(§8) Percentages of remaining activity were calculated according to the following formula:
(§9) Remaining activity%=peak area ratio of metabolite to internal standardtest sample/peak area ratio of metabolite to internal standardblank solvent×100%.
In general terms: Liver microsomes are a subcellular fraction often used to study metabolism.

In a further data set the target is CYP2D6 (Homo sapiens (Human), UniProt P10635). Kind of data set: CYP2D6 inhibition in human liver microsomes (dextromethorphan substrate). Format: in vitro ADME. Particulars: human liver microsome. The method, then:
as §1, §2, §3, §4, §5, §6, §7, §8, §9

For the next data set, the target named is CYP3A4 (Homo sapiens (Human), UniProt P08684). The data set is described as follows: CYP3A4 inhibition in human liver microsomes (midazolam substrate). Format: in vitro ADME. To be noted: human liver microsome. How it is done: as §1, §2, §3, §4, §5, §6, §7, §8, §9
Chain of CYP3A4 (P08684 whole entry): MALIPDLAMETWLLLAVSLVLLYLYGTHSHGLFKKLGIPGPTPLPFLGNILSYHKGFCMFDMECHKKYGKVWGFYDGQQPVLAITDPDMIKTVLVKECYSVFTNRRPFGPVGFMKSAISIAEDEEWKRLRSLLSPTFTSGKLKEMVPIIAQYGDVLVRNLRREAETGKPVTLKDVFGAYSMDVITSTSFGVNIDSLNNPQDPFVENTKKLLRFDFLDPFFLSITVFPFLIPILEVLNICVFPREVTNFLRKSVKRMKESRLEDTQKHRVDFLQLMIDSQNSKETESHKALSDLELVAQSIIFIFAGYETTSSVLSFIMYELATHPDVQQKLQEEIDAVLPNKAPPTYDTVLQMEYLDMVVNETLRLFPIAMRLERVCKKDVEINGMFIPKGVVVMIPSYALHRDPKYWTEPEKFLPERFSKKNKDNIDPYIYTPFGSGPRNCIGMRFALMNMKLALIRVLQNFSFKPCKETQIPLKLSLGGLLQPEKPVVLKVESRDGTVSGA

Chain of CYP2C9 (P11712 whole entry): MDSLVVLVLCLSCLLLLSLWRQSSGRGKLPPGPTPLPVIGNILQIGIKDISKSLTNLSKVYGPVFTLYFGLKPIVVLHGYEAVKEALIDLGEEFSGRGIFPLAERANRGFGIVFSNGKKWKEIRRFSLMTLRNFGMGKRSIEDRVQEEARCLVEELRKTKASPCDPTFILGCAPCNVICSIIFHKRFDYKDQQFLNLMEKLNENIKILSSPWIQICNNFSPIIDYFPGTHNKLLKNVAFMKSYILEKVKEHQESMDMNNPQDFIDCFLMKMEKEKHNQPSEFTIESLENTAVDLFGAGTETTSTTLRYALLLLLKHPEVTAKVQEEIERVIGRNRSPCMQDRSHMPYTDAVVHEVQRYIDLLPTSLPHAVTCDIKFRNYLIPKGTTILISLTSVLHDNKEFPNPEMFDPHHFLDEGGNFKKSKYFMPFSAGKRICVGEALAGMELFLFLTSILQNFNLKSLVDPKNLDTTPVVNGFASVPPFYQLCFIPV
Chain of CYP2D6 (P10635 whole entry): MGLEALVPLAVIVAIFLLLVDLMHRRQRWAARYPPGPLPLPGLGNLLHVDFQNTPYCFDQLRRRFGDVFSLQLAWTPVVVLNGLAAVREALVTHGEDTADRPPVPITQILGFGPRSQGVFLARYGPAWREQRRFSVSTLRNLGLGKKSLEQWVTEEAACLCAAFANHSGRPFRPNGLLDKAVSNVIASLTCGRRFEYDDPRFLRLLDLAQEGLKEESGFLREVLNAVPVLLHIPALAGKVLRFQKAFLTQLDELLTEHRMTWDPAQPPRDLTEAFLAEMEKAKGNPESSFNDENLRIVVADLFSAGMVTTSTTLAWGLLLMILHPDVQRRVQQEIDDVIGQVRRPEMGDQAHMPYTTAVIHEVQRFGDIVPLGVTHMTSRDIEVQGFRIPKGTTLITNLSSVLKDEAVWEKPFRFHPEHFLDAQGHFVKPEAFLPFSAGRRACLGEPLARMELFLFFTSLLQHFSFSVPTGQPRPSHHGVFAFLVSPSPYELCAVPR

On to `Cc1ncccc1-n1c(=O)c2ncn(C)c2c2ccc(C(F)(F)F)nc21` (atropisomer, axis not shown) [Compound 20, 1-methyl-5-(2-methylpyridin-3-yl)-7-(trifluoromethyl)-1,5-dihydro-4H-imidazo[4,5-c][1,8]naphthyridin-4-one], for which the half-inhibitory concentration (IC50) was 0.003 µM with HCT116 MTAP^−/− cells, above 30 µM at CYP2C9, above 30 µM against CYP2D6 and above 30 µM against CYP3A4.

Take `Cn1cnc2c(=O)n(-c3cccc(F)c3Cl)c3nc(C(F)(F)F)ccc3c21` (atropisomer, axis not shown) [Compound 25, 5-(2-chloro-3-fluorophenyl)-1-methyl-7-(trifluoromethyl)-1,5-dihydro-4H-imidazo[4,5-c][1,8]naphthyridin-4-one]: the IC50 in the data set on HCT116 MTAP^−/− cells was 0.0044 µM; on CYP2C9, above 30 µM; on CYP2D6, above 30 µM; at CYP3A4, above 30 µM.

Regarding `Cn1cnc2c(=O)n(-c3cccc(F)c3Cl)c3nc(C(F)(F)F)ccc3c21` (single isomer, unassigned) [Compound 25-P2, 5-(2-chloro-3-fluorophenyl)-1-methyl-7-(trifluoromethyl)-1,5-dihydro-4H-imidazo[4,5-c][1,8]naphthyridin-4-one], the IC50 in the data set on HCT116 MTAP^−/− cells is 0.0028 µM; against CYP2C9, above 30 µM; at CYP2D6, above 30 µM; at CYP3A4, above 30 µM.

On to `Cn1cnc2c(=O)n(-c3cccnc3C(F)(F)F)c3nc(C(F)(F)F)ccc3c21` (single isomer, unassigned) [Compound 41-P2, 1-methyl-7-(trifluoromethyl)-5-(2-(trifluoromethyl)pyridin-3-yl)-1,5-dihydro-4H-imidazo[4,5-c][1,8]naphthyridin-4-one], for which the half-inhibitory concentration (IC50) in the data set on HCT116 MTAP^−/− cells was 0.0046 µM; against CYP2C9, above 30 µM; on CYP2D6, 18.2 µM; on CYP3A4 it was above 30 µM.

With `Cn1cnc2c(=O)n(-c3cccnc3C3CC3)c3nc(C(F)(F)F)ccc3c21` (single isomer, unassigned) [Compound 42-P2, 5-(2-cyclopropylpyridin-3-yl)-1-methyl-7-(trifluoromethyl)-1,5-dihydro-4H-imidazo[4,5-c][1,8]naphthyridin-4-one], the IC50 on CYP2C9, against CYP2D6 and against CYP3A4 was above 30 µM throughout.

As for `Cn1cnc2c(=O)n(-c3cccnc3C3CC3)c3cc(C(F)(F)F)ccc3c21` (single isomer, unassigned) [Compound 48-P2, 5-(2-cyclopropylpyridin-3-yl)-1-methyl-7-(trifluoromethyl)-1,5-dihydro-4H-imidazo[4,5-c]quinolin-4-one], the half-maximal inhibitory concentration (IC50) against CYP2C9, against CYP2D6 and on CYP3A4 was above 30 µM each time.

Consider `Cn1cnc2c(=O)n(-c3cccnc3C3CC3)c3cc(Cl)ccc3c21` (single isomer, unassigned) [Compound 49-P2, 7-chloro-5-(2-cyclopropylpyridin-3-yl)-1-methyl-1,5-dihydro-4H-imidazo[4,5-c]quinolin-4-one], for which the IC50 in the data set with HCT116 MTAP^−/− cells is 0.0019 µM; at CYP2C9, above 30 µM; against CYP2D6, above 30 µM; against CYP3A4, above 30 µM.

`O=c1c2ncoc2c2ccc(C(F)(F)F)nc2n1-c1cccnc1C1CC1` (single isomer, unassigned) [Compound 81-P2, 5-(2-cyclopropylpyridin-3-yl)-7-(trifluoromethyl)oxazolo[4,5-c][1,8]naphthyridin-4(5H)-one]: the IC50 at CYP2C9, against CYP2D6 and on CYP3A4 was above 30 µM in each case.

With `Cn1cnc2c(=O)n(-c3cccc(F)c3Cl)c3cc(Cl)ccc3c21` [Compound 39, 7-chloro-5-(2-chloro-3-fluorophenyl)-1-methyl-1,5-dihydro-4H-imidazo[4,5-c]quinolin-4-one], the IC50 on CYP2C9, on CYP2D6 and on CYP3A4 was above 30 µM in each case.

On to `Cc1ncccc1-n1c(=O)c2ncoc2c2ccc(C(F)(F)F)nc21` [Compound 40, 5-(2-methylpyridin-3-yl)-7-(trifluoromethyl)oxazolo[4,5-c][1,8]naphthyridin-4(5H)-one], for which the IC50 against CYP2C9, on CYP2D6 and against CYP3A4 was above 30 µM in each case.

As to `Cc1ncccc1-n1c(=O)c2ncn(C)c2c2ccc(C(F)(F)F)cc21` [Compound 45, 1-methyl-5-(2-methylpyridin-3-yl)-7-(trifluoromethyl)-1,5-dihydro-4H-imidazo[4,5-c]quinolin-4-one], the IC50 at CYP2C9, against CYP2D6 and against CYP3A4 was above 30 µM throughout.

The IC50 is the point on the concentration scale where inhibition reaches its midpoint.
